Four molecules from article PMC9699089 (Pathogens, 2022) can be followed below.

SMILES strings stand for the structures. Like-named read-outs stand apart in the source and are kept apart here. Bounds are passed on as bounds.

The nature of data set [1]: Cytotoxicity evaluation, MTT assay. To be noted: human. The format is cell-based, human. An outline of the steps: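 MTT read-out in duplicate; wells checked for precipitate, then MTT 0.5 mg/mL in FCS-free medium added, formazan dissolved in DMSO and absorbance read at 570 nm (630 nm reference). Viability expressed as percentage of untreated cells; CC50 derived from dose-response curve.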
On the technique in general: Tetrazolium dyes change colour on reduction, which living cells bring about.

Data set [2] deals with human telomeric sequence 24TTG. Briefly: Native electrospray mass spectrometry, 24TTG. The conditions noted are these: 100 mM TMAA, 1 mM KCl. In kind it is binding. Set-up: key to Kd 24TTG, stoichiometry 1 (Kd1): n.b.: no binding detected; <LOQ: binding detected but below limit of quantitation. Here is the method:
(§1) Oligonucleotides were purchased in the lyophilized form from Eurogentec (RP-cartridge purification), and dissolved at 1 mM in pure water. TMAA (1 M) was purchased from Santa Cruz Biotechnology and potassium chloride (purity > 99.99%) from Sigma Aldrich (Sigma Aldrich, Saint-Quentin-Fallavier, France). The sample solutions contained 10 µM oligonucleotide and 10 (for CD only) or 20 µM ligand, in a 100 mM TMAA, 1mM KCl buffer. The solutions were incubated overnight at 4 °C before analysis.
(§2) The sample solutions were injected at a 10 µM strand concentration on an Agilent 6560 DTIMS-Q-TOF instrument (Agilent Technologies, Santa Clara, CA, USA), equipped with a dual-ESI source operated in the negative ion mode in soft conditions. The following parameters were used: fragmentor 320 V, trap fill time 1000 µs, trap release time 200 µs, trap entrance grid delta 2 V. The drift tube was filled with helium and the pressure was fixed at 3.89 ± 0.01 Torr (measured by a capacitance diaphragm gauge CDG-500, Agilent Technologies).
(§3) The MS data were extracted using the IM-MS Browser (v. B.08.00; Agilent Technologies). The peak area intensity of each species at the 5- charge state was extracted from their corresponding m/z range (encompassing potassium adducts), and baseline subtracted. The concentrations of all species (free DNA, free ligands, and complexes) and corresponding dissociation constants were determined as previously described.

Data set [3] concerns Plasmodium falciparum CQ-resistant strain W2. In words: In vitro antiplasmodial activity, SYBR Green I fluorescence-based method, strain W2. In kind it is cell-based. To be noted: CQ-resistant strain W2, 48 h incubation, mean of three independent experiments, read-out: P. falciparum Strains IC50 Values W2. The procedure, abridged: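 P. falciparum cultured in human erythrocytes in RPMI with 0.5% Albumax I, hypoxanthine and gentamicin at 37 °C in a candle jar. Compounds tested from 39 nM to 40 µM for 48 h. Parasite DNA quantified by SYBR Green I fluorescence in saponin/Triton lysis buffer (ex 485/em 535 nm).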

Data set [4] deals with G-rich unfolded single-stranded sequence 24nonG4. Briefly: Native electrospray mass spectrometry, 24nonG4. The format is binding. On the set-up: key to Kd 24nonG4, stoichiometry 2 (Kd2) / Kd 24nonG4, stoichiometry 1 (Kd1): n.b.: no binding detected; <LOQ: binding detected but below limit of quantitation. The conditions noted are these: 100 mM TMAA, 1 mM KCl; for Kd: read-out: Kd 24nonG4, stoichiometry 1 (Kd1); for Kd 24nonG4, stoichiometry 2 (Kd2): 2:1 ligand:DNA complex. The method, then:
as §1, §2, §3

The subject of data set [5] is human telomeric sequence F21T G-quadruplex. In words: FRET melting assay, F21T. In kind it is binding. To be noted: compound 2 μM, oligonucleotide 0.2 μM, K+ conditions.
For data set [6], the target named is G4-forming oligonucleotide Pf8 (d[(G3T2CA)3G3]). Briefly: Native electrospray mass spectrometry, Pf8. The format is binding, Plasmodium. To be noted: 100 mM TMAA, 1 mM KCl. The method, then:
as §1, §2, §3

Where [7] appears, read: 1:1 ligand:DNA complex, read-out: Kd Pf8, stoichiometry 1 (Kd1).
[8] abbreviates: 1:1 ligand:DNA complex, read-out: Kd 24TTG, stoichiometry 1 (Kd1).
Where [9] appears, read: 2:1 ligand:DNA complex, read-out: Kd 24TTG, stoichiometry 2 (Kd2).
The mark [10] stands for this setting: 2:1 ligand:DNA complex, read-out: Kd Pf8, stoichiometry 2 (Kd2).

On to `c1ccc(-c2cc(CNCCc3ccccn3)nc3c2ccc2c(-c4ccccc4)cc(CNCCc4ccccn4)nc23)cc1` [Compound 1m], for which, in data set [1], the CC50 at 72 h came to 4.34 ± 0.31 µM. Further, the “Kd 24TTG, stoichiometry 1 (Kd1)” value in data set [2] (1:1 ligand:DNA complex) is “n.b”. Moreover, the IC50 in data set [3] came out at 0.07 ± 0.01 µM. Moreover, the “Kd 24nonG4, stoichiometry 1 (Kd1)” value in data set [4] (1:1 ligand:DNA complex) was “n.b”. In addition, the “ΔTm F21T” value in data set [5] came out at 1.0 °C. The “Kd Pf8, stoichiometry 1 (Kd1)” value in data set [6] (1:1 ligand:DNA complex) is “very weakly bound”. The Kd in data set [6] (setting [7]) came to 83 µM.

`CN(C)CCCCCNCc1cc(-c2ccccc2)c2ccc3c(-c4ccccc4)cc(CNCCCCCN(C)C)nc3c2n1` [Compound 1d, 2,9-Bis[(5-dimethylaminopentyl)aminomethyl]-4,7-diphenyl-1,10-phenanthroline] returned a CC50 at 72 h in data set [1] of 3.35 ± 0.33 µM. The Kd worked out at 38 µM in data set [2] (setting [8]); 62 µM in data set [2] (setting [9]); 11 µM in data set [4] (1:1 ligand:DNA complex); 3 µM in data set [6] (setting [7]); 16 µM in data set [6] (setting [10]). In addition, in data set [3], the IC50 worked out at 3.51 ± 0.52 µM. In addition, the “Kd 24nonG4, stoichiometry 2 (Kd2)” value in data set [4] is given as “<LOQ”. Besides, the “ΔTm F21T” value in data set [5] amounted to 18.1 °C.

As to `c1ccc(-c2cc(CNCCCN3CCCC3)nc3c2ccc2c(-c4ccccc4)cc(CNCCCN4CCCC4)nc23)cc1` [Compound 1l], the CC50 at 72 h in data set [1] was 15.2 ± 1.56 µM. Further, the Kd in data set [2] (setting [8]) came to 34 µM; in data set [2] (setting [9]), 18 µM; in data set [4] (1:1 ligand:DNA complex), 8 µM; in data set [6] (setting [7]), 2 µM; in data set [6] (setting [10]) it was 59 µM. Also, the IC50 in data set [3] was found to be 0.03 ± 0.01 µM. Also, the “Kd 24nonG4, stoichiometry 2 (Kd2)” value in data set [4] is reported as “<LOQ”. The “ΔTm F21T” value in data set [5] was found to be 14.5 °C.

In turn, `CN(C)CCCCNCc1cc(-c2ccccc2)c2ccc3c(-c4ccccc4)cc(CNCCCCN(C)C)nc3c2n1` [Compound 1c, 2,9-Bis[(4-dimethylaminobutyl)aminomethyl]-4,7-diphenyl-1,10-phenanthroline] had a CC50 at 72 h in data set [1] of 10.4 ± 0.7 µM. For the same molecule, the Kd in data set [2] (setting [8]) was 44 µM; in data set [2] (setting [9]), 28 µM; in data set [4] (1:1 ligand:DNA complex), 9 µM; in data set [6] (setting [7]) it was 3 µM; in data set [6] (setting [10]), 50 µM. The IC50 in data set [3] came out at 0.03 ± 0.003 µM. In data set [4], the “Kd 24nonG4, stoichiometry 2 (Kd2)” value was “<LOQ”. In addition, the “ΔTm F21T” value in data set [5] came out at 13.2 °C.

As a reminder, the CC50 is the concentration at which the toxic effect on the cells reaches its halfway point. As usually defined, the IC50 is the concentration at which inhibition is half-maximal. The Kd is the equilibrium constant for the complex coming apart.
